# Measurements as given in a melting point compilation (Tetko et al.; mined from patent text by program, amines drawn as free bases though some values may be those of a salt).
row,melting point [°C],Structure (SMILES)
1,150 to 152,COC(=O)NC12CC=CCC1CSc1ccccc12 (stereo not given)
2,84 to 85,CC(C)Oc1ccc(CCCOc2ncccc2CC(=O)O)c(Oc2ncc(Cl)cc2Cl)c1
3,96 to 98,CCCc1nn(C)c(C(N)=O)c1N
4,78.3 to 79.8,COC(=O)c1cc(CBr)cc(C2(C#N)CC2)c1
5,89,CCCCCCNC(=O)Oc1ccc2ncccc2c1
6,113 to 115,CC(N)=CC(=O)C1CNC(C)S1(=O)=O (stereo not given)
7,164 to 165,CCc1c(C)nc2ccc([N+](=O)[O-])cn2c1=O
8,98 to 100,COC(=O)c1cccc(/C=C/c2cc3ccccc3o2)c1
9,129 to 131,CCOc1nc2ccccc2nc1N(C)C(=O)N1CCN(c2cc(Cl)cc(Cl)c2)CC1
10,173 to 175,O=C(O)Cc1ccc2c(c1)C(=O)c1cc(F)ccc1CO2
11,274,N=C(N)Nc1nc(-c2csc(N)n2)cs1
12,110 to 112,COc1ccc(C(=O)Nc2ccc(-c3ccc(C(C)=O)cc3C)cc2)cc1CCCN(C)C
13,208 to 209,O=C(O)c1cc(C(c2cc(F)ccc2F)S(=O)(=O)c2ccc(Cl)cc2)c(F)cn1 (stereo not given)
14,130 to 132,O=C1NC(=O)C(Cc2ccc(N3CCC(NC[C@H](O)c4ccc5nnnn5c4)CC3)cc2)S1 (stereo not given in full)
15,237,Cc1cc(Br)c(S(N)(=O)=O)cc1C(=O)O
16,87 to 89,N#Cc1ccccc1OCCCCC(=O)O
17,140 to 143,CCOC(=O)c1cc(NC(=O)C(CS)Cc2ccc(Cl)cc2)c[nH]1 (stereo not given)
18,189 to 191,COc1ccccc1P1(=O)c2ccccc2CN1c1ccccc1 (stereo not given)
19,174,CNCCC1=C(C#N)C(c2cccc3nonc23)c2c[nH]nc2N1 (stereo not given)
20,105 to 106,CC(C)C[C@@H](C(=O)OC(C)(C)C)N1C(=O)NC(C(F)(F)F)(C(F)(F)F)C1=O
21,79 to 81,CCOC(=O)c1cnn(-c2ccc(Cl)cc2Cl)c1C#N
22,166 to 167,CC(C)(C)n1cc(-c2ccc(I)cc2)c(C#N)c1N
23,90 to 91,Cc1ccc(S(=O)(=O)N2CCCC2CO)cc1 (stereo not given)
24,131 to 133,Fc1ccc(CN2CCCC(Nc3nccc(-c4c(-c5ccc(F)cc5)nc5sccn45)n3)C2)cc1 (stereo not given)

row,melting point [°C],Structure (SMILES)
1,74 to 76,CCCCN(c1nc(N(CC)CC)nc(N(CCCC)C2CC(C)(C)NC(C)(C)C2)n1)C1CC(C)(C)NC(C)(C)C1
2,86 to 87,CCc1cc(N(C)C(=O)N2CCN(c3cc(C)cc(C)c3)CC2)c(OC)nc1C
3,226 to 230,CC1(O)c2ccccc2C=C(Br)c2ccncc21 (stereo not given)
4,144 to 147,CCCNC(=O)NCCCCCN1CCC(CNC(=O)c2cc(Cl)c(N)cc2OC)CC1
5,192 to 193,C[C@@H](N(CC(=O)O)C(=O)c1ccc(OCC(F)(F)C(F)F)cc1)[C@](O)(Cn1cncn1)c1ccc(Cl)cc1Cl (relative stereo)
6,80 to 82,CN1CCC(Oc2ccccc2[N+](=O)[O-])(c2ccccc2)CC1
7,123 to 130,COC(=O)C(C)Nc1c([N+](=O)[O-])cnn1-c1c(Cl)cc(C(F)(F)F)cc1Cl (stereo not given)
8,270,O=C(NCc1ccc2c(c1)OCO2)c1ccc2[nH]c(=O)n(Cc3cccs3)c(=O)c2c1
9,149 to 152,Cc1ccc2c(c1)OC(C(=O)O)Oc1ccccc1C2 (stereo not given)
10,115 to 117,O=C1CS(=O)(=O)CN1c1cccc(C(F)(F)F)c1
11,136 to 137,CN(C[C@@H]1C[C@H]1COc1ccc(C(=O)c2ccc(Br)cc2)cc1)C1CC1 (racemic)
12,161 to 164,Cc1cc(-c2nncc3c(C(C)(C)C)c(OCc4ncn(C)n4)nn23)no1
13,108 to 110,CCCCn1c(=O)n(Cc2ccccc2)c(=O)c2c(Cl)cc(Cl)cc21
14,39 to 41,COC(=O)C(Br)c1ccc2c(c1)OCO2 (stereo not given)
15,122 to 124,c1cnc(C2CC(c3cnccn3)CC(c3cnccn3)C2)cn1 (stereo not given)
16,56 to 59,CON=C(C1=NOCCO1)c1ccccc1COc1ccn(-c2ccc(Cl)cc2)n1
17,< 50,c1ccc(CN2CCC3(CC2)OCCO3)cc1
18,127 to 130,O=C1c2ccccc2C(=O)N1CC1CC(=O)N(Cc2ccccc2)c2ccccc2N1 (stereo not given)
19,171 to 172,O=[N+]([O-])c1ccccc1Nc1ccc(I)cc1
20,160 to 162,Cc1ccc2cccc(OCc3c(Cl)ccc(S(=O)(=O)N(C)C(C)(C)C)c3Cl)c2n1
21,128 to 131,CCCCCn1c(C#N)ccc1-c1ccc2c(c1)C(C)(C)OC(=O)N2
22,61 to 63,OCC(CO)Cc1cccc(Br)c1
23,117 to 120,CCc1nc2c(cnn2CC)c(NC2CCOCC2)c1CNC(=O)c1cc(C)cc(C(=O)NCc2ccc(C)c(-c3cccc(C=O)c3)c2)c1
24,193 to 195,CN1CCN(c2ccc(Nc3ncc4ccc(-c5ccccc5OCC(=O)OC(C)(C)C)n4n3)cc2)CC1

row,melting point [°C],Structure (SMILES)
1,145 to 150,Cc1nc2c(C(=O)NC(C)(C(N)=O)C(C)C)c(C(=O)O)ccc2n1Cc1ccccc1 (stereo not given)
2,107 to 108,COC(=O)c1ccc(CN2CCC(=O)C(C(c3ccccc3)c3ccccc3)C2)cc1 (stereo not given)
3,278 to 292,CNC(=O)c1ccc(C=CC(=O)NCC(=O)N(C)c2ccc(C)c(COc3cccc4c3nc(S)n4C)c2C)cc1
4,119 to 122,CC(C)c1nc(-c2ccccc2)nc(-c2ccc(F)cc2)c1C=CI
5,69 to 70,CON(C)C(=O)c1ccc(-n2ccnc2)nc1
6,115 to 117,CCOC(=O)C(=CNc1ncnc2ccccc12)C(=O)OCC
7,57,CCOn1c(OC)n[nH]c1=O
8,245 to 246,CN(C)c1nc2ncnc(NCc3ccco3)c2[nH]1
9,202 to 203,CC1CN(CC(=O)c2ccccc2)c2nc(-c3ccncc3)cc(=O)n2C1 (stereo not given)
10,101 to 104,COc1ccc(-c2nc(CCO)sc2-c2ccc(OC)cc2)cc1
11,168 to 170,CO[C@@H]1CC[C@H](C(=O)O)Cc2onc(-c3ccc(Cl)cc3)c21 (relative stereo)
12,89 to 90,Clc1cc(CC(Cl)Cl)cnc1Cl
13,126 to 128,CN(C)c1ccc2ncnc(Cl)c2c1
14,140 to 142,CC(=O)OCC1OC(n2c(Cl)nc3cc(Br)c(Br)cc32)C(OC(C)=O)C1OC(C)=O (stereo not given)
15,113 to 114,NC(=O)c1c(Cl)c(Cl)c(Cl)c(Cl)c1C(=O)O
16,61 to 64,O=C(Nc1nccs1)C(CC1CCCC1)c1cccc(S(=O)(=O)C(F)(F)F)c1 (stereo not given)
17,144 to 145,COC(=O)c1ccc2cc(OC)c(OC)cc2c1O
18,160 to 163,CCN(CC)c1ccc(/C=C/C(=O)CC(=O)/C=C/c2ccc3cc[nH]c3c2)c(OCc2ccccc2)c1
19,> 250,O=C(O)c1cn([C@@H]2C[C@@H]2F)c2cc(N3C[C@@H]4NCCO[C@H]4C3)c(F)cc2c1=O
20,81,CCC[C@H]1CC[C@H]([C@H]2CC[C@H](c3ccc(C(C)=O)cc3)CC2)CC1
21,194 to 196,CCCCC1(O)CCN(CC23CC(c4ccccc42)c2ccccc23)CC1
22,117 to 118,COc1cn(-c2ccc(OC(F)(F)F)cc2F)nc(-c2ccnn2-c2ccccc2)c1=O
23,281 to 282,COc1cc(OC)c2c(=O)[nH]c(-c3ccc(OCCO)c(-c4ccc(S(C)=O)cc4)n3)nc2c1 (stereo not given)
24,85,O=C(O)c1cnn(OCCCC2OCCO2)c1

row,melting point [°C],Structure (SMILES)
1,170 to 171,Fc1cccc(Cl)c1-c1nnc2ccc(C(F)(F)F)cn12
2,86 to 87.5,CC(C)(C)c1cc(SCCc2n[nH]c(=O)o2)cc(C(C)(C)C)c1O
3,268 to 269,O=C1CC2(C(=O)N1)C(=O)N1CCCc3cc(Cl)cc2c31 (stereo not given)
4,194 to 196,C=C1C(O)C(CO)OC1n1cc(CC)c(N)nc1=O (stereo not given)
5,144 to 146,OCCCCc1cn(C(c2ccccc2)(c2ccccc2)c2ccccc2)cn1
6,74 to 78,CCOC(=S)N[C@@H](C)C(=O)O
7,144 to 145,COc1cc(C(=O)[C@H](C)NC(=O)C(F)(F)F)c(OC)cc1Br
8,62,CCCCCCCCC(Cc1cccnc1)(C(=O)NO)S(=O)(=O)c1ccc(OC)cc1 (stereo not given)
9,42 to 44,CCOC(=O)CC(NC(=O)c1ccc(Cl)cc1)C(=O)C(C)C (stereo not given)
10,180 to 182,N#Cc1c(N2CCCCC2)cc(-c2cccc3ccccc23)c2c1-c1ccccc1C2=O
11,74 to 76,CCN(C)C(=O)NC(=N)SC
12,201 to 203,CCc1c(-c2nnc(C)s2)cc2oc(=O)c(C)c(C)c2c1OC
13,142 to 143,COc1ccc(-c2ncn(CCCCCCCC(=O)O)c2-c2ccc(OC)cc2)cc1
14,68,BrCCCCCCC1(CCCCCCBr)c2cc(Br)ccc2-c2ccc(Br)cc21
15,197 to 198,COC(=O)c1ccccc1S(=O)(=O)NC(=O)Nc1nc(C)c2cc(C)oc2n1
16,> 300,N#Cc1cc2[nH]c(=O)c3n[nH]c(=O)n3c2cc1-n1ccnc1
17,158 to 162,Cn1cc(C(=O)NCc2ccc(Cl)cc2)c(=O)c2cc(CN3CCC[C@@H]3[C@@H](O)c3ccccc3)sc21 (relative stereo)
18,179 to 181,COc1cc(Nc2c(C#N)cnc3sc(C)cc23)c(Cl)cc1Cl
19,151 to 153,COc1nc2c(C)cc(C)cc2c(-c2ccccc2Cl)c1NC(=O)Nc1cccc(C(F)(F)F)c1
20,109,CCOC(CCCNS(=O)(=O)c1ccccc1)OCC
21,204 to 209,N#Cc1cccc(C2=Nc3ccc(C4CC4)cc3NC(=O)C2)c1
22,> 280,NC(=O)NCc1ccc(Nc2n[nH]c3ncnc(Nc4cccc(Cl)c4)c23)cc1
23,155 to 157,O=C(O)c1cc(-c2ccccc2C(F)(F)F)nc(C(F)(F)F)c1

row,Structure (SMILES),melting point [°C]
1,CNCCc1cc(Br)cc(-c2sccc2C)c1N,68 to 70
2,Cc1ccc(S(=O)C2CC3C(=O)C(c4ccc(F)cc4)=CC2N3C)cc1 (mixture of isomers),186
3,CON=C(Cn1nnnc1S)C(=O)O,84 to 86
4,CC(=O)NCCCC(=O)N1CC1C#N (stereo not given),72 to 75
5,"CCN1CCC(O)(c2cc(F)cc(F)c2)C1 (single isomer, unassigned; (-))",111 to 112
